Columns and labels:
Assay type in all cases: cell-based
[1] = molecular target: human α1H T-type channels (Homo sapiens, UniProt O95180); assay: T-type calcium channel block, whole cell patch clamp, α1H; conditions: HEK cells stably expressing human α1H; mainly non-inactivated protocol; values above 10,000 nM represented as 10000
Summary of the method: (§1)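 Blockade of T-type current was measured in human α1G- or α1H-expressing HEK 293 cells using whole-cell recording with ~5 MΩ pipettes. Test compounds, dissolved in external solution containing 0.1-0.01% DMSO, were applied close to the cell, and block was examined under both non-inactivating and inactivating voltage protocols.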

[2] = molecular target: N-type calcium channel subunits (α1B, α2δ, and β3a) (Homo sapiens, UniProt Q00975); assay: Block of Cav2.2 channel, whole cell voltage clamp, manual and PatchXpress; conditions: Table 5; table follows Assay Example 3 (whole cell voltage clamp / PatchXpress); assay not given
Summary of the method: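 Percent block taken as current amplitude ratio with versus without compound, applied in rising doses; IC50 fitted where one cell received multiple doses. Protocol: 50 ms pulses to +20 mV at 0.067 Hz from […] or −90 mV holding; P/n leak subtraction, no junction-potential correction; manual and PatchXpress recordings.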

[3] = molecular target: human α1G T-type channels (Homo sapiens, UniProt O43497); assay: T-type calcium channel block, whole cell patch clamp, α1G; conditions: HEK cells stably expressing human α1G; mainly non-inactivated protocol; values above 10,000 nM represented as 10000
Summary of the method: as §1

human α1H T-type channels, sequence (O95180 whole entry): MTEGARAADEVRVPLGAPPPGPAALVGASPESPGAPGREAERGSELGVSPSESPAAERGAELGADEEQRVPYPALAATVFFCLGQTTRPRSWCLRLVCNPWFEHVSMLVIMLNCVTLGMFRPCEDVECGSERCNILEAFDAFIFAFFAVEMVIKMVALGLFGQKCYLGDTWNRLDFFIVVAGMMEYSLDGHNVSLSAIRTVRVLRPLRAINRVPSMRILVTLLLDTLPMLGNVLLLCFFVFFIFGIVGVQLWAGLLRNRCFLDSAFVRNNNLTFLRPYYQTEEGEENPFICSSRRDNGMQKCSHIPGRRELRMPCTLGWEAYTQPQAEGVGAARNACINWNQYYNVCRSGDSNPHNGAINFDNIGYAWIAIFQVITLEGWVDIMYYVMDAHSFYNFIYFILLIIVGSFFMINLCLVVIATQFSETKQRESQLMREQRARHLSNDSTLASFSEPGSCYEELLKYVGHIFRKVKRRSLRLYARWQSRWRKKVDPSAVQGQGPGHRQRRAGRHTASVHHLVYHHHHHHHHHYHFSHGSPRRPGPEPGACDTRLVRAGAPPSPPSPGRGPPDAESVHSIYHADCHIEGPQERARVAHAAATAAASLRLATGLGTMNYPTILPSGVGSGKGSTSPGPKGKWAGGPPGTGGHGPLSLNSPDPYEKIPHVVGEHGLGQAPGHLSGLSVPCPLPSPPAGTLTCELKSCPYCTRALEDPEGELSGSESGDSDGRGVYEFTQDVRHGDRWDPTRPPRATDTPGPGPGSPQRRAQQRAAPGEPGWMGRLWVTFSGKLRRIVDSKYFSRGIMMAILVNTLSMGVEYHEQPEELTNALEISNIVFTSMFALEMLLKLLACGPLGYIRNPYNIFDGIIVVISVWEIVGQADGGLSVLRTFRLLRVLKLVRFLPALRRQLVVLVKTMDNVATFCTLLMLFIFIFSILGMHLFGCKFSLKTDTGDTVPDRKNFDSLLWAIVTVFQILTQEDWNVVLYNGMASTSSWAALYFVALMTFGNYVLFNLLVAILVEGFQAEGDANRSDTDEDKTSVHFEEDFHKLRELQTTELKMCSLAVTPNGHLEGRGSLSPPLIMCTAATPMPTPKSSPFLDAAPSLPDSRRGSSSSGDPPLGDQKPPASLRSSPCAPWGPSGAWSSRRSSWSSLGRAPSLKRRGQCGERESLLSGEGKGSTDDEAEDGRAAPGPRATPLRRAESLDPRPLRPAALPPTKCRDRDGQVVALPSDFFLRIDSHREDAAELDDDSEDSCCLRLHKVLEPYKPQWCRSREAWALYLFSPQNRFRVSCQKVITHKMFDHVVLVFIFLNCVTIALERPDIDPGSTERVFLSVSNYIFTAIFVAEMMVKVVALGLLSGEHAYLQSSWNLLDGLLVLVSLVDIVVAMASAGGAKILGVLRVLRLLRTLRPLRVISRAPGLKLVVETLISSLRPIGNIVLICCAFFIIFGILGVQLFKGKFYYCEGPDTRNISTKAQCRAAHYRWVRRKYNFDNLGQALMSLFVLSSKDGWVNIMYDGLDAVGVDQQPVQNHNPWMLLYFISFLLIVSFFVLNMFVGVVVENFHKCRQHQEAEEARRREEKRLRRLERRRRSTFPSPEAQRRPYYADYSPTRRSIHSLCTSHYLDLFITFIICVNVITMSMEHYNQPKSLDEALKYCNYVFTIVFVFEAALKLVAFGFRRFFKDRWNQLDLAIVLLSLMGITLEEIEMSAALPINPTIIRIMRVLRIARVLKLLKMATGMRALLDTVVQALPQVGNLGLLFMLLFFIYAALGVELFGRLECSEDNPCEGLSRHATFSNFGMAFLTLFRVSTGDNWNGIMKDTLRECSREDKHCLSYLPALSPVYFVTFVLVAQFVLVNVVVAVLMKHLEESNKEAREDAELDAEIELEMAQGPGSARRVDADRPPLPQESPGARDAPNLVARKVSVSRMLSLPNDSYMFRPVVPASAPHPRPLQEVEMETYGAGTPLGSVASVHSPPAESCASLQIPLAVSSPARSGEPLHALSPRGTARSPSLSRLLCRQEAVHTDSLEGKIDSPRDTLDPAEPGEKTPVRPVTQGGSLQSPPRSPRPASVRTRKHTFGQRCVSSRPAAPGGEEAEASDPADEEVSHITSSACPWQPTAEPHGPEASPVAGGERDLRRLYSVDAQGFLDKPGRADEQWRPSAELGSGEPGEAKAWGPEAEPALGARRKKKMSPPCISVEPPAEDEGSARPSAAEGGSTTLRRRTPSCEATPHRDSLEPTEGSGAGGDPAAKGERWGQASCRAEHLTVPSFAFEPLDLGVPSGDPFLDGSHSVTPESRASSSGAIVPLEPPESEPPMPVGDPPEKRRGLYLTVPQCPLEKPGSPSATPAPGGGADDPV
human α1G T-type channels, sequence (O43497 whole entry): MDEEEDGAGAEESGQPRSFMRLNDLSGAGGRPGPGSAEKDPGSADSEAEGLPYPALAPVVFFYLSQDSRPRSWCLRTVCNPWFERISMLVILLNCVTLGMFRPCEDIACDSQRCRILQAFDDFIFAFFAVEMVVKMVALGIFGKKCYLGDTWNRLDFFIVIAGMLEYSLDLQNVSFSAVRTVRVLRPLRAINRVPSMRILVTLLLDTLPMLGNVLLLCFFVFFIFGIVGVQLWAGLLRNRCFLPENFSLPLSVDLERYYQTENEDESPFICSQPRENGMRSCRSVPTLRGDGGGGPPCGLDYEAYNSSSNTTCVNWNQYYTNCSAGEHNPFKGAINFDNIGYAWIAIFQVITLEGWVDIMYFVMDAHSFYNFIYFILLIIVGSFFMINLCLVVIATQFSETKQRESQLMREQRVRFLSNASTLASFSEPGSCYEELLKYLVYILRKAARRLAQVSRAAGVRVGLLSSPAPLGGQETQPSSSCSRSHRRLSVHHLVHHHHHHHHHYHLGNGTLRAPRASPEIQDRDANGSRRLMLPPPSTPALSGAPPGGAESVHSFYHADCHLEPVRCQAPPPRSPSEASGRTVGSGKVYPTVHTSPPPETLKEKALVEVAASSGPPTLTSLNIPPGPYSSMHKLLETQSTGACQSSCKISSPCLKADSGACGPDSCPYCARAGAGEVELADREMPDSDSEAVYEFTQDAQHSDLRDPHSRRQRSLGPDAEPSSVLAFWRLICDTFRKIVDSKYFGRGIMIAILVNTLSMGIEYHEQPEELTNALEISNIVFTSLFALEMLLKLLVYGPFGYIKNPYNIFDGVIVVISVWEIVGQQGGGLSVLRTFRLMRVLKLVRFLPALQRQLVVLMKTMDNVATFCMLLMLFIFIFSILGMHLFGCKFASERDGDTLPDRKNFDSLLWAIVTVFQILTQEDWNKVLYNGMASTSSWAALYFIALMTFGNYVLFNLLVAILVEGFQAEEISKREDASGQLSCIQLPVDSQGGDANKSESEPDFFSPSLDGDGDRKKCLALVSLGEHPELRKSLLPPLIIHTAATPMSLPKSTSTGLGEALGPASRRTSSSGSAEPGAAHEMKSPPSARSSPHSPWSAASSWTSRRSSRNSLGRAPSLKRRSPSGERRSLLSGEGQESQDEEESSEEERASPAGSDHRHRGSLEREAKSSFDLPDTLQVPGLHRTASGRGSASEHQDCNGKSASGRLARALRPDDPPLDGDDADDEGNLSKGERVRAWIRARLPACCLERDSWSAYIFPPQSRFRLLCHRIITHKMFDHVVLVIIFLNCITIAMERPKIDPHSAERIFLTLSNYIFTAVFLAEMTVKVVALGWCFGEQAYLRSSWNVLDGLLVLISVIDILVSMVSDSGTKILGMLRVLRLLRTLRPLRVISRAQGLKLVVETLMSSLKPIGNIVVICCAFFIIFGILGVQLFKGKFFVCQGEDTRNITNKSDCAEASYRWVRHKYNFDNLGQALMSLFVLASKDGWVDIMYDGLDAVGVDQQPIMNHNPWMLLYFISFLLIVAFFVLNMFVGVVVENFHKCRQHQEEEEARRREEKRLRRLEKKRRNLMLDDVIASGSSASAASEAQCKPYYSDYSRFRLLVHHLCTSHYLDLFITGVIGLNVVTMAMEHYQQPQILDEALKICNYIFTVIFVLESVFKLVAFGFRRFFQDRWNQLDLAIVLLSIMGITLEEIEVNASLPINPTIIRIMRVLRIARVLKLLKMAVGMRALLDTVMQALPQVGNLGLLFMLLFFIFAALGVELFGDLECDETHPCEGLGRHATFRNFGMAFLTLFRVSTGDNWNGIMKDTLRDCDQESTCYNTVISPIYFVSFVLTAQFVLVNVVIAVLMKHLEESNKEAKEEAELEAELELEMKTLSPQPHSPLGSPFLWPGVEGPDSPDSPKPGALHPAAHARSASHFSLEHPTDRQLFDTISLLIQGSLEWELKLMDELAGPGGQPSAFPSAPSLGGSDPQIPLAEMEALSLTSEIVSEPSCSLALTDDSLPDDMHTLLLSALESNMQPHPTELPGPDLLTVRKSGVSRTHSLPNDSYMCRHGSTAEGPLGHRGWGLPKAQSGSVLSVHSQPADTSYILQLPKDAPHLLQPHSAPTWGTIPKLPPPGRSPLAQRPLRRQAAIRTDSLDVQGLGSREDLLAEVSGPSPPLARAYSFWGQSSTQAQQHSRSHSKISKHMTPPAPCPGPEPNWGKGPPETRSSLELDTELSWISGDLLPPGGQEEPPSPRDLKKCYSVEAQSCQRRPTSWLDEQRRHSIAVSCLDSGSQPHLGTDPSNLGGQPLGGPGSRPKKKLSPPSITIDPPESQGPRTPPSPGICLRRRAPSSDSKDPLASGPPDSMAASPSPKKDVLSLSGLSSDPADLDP

SMILES	IC50 [1]	IC50 [2]	IC50 [3]
O=C(N[C@H]1C[C@H](CS(=O)(=O)c2cccc(C(F)(F)F)c2)C1)c1cc(F)cc(Cl)c1 [Compound 344, 3-chloro-5-fluoro-N-((1R,3R)-3-((3-(trifluoromethyl)phenylsulfonyl)methyl)cyclobutyl)benzamide]	> 10000 nM	680 nM	> 10000 nM
O=C(N[C@H]1C[C@H](CS(=O)(=O)c2cccc(C(F)(F)F)c2)C1)c1ccc(F)c(C(F)(F)F)c1 [Compound 345, 4-fluoro-3-(trifluoromethyl)-N-((1R,3R)-3-((3-(trifluoromethyl)phenylsulfonyl)methyl)cyclobutyl)benzamide]	1930 nM	580 nM	5530 nM
O=C(N[C@H]1C[C@H](CS(=O)(=O)c2cccc(C(F)(F)F)c2)C1)c1ccc(C(F)(F)F)nc1 [Compound 346, 6-(trifluoromethyl)-N-((1R,3R)-3-((3-(trifluoromethyl)phenylsulfonyl)methyl)cyclobutyl)nicotinamide]	410 nM	5540 nM	1260 nM
O=C(N[C@H]1C[C@H](CS(=O)(=O)c2cccc(C(F)(F)F)c2)C1)c1ccc(C(F)(F)F)cn1 [Compound 347, 5-(trifluoromethyl)-N-((1R,3R)-3-((3-(trifluoromethyl)phenylsulfonyl)methyl)cyclobutyl)picolinamide]	260 nM	1120 nM	2370 nM
O=C(N[C@H]1C[C@H](CS(=O)(=O)c2cccc(C(F)(F)F)c2)C1)c1ccc(F)c(Cl)c1 [Compound 348, 3-chloro-4-fluoro-N-((1R,3R)-3-((3-(trifluoromethyl)phenylsulfonyl)methyl)cyclobutyl)benzamide]	540 nM	1030 nM	4520 nM
COc1cc(F)cc(C(=O)N[C@H]2C[C@H](CS(=O)(=O)c3cccc(C(F)(F)F)c3)C2)c1 [Compound 349, 3-fluoro-5-methoxy-N-((1R,3R)-3-((3-(trifluoromethyl)phenylsulfonyl)methyl)cyclobutyl)benzamide]	> 10000 nM	890 nM	> 10000 nM
Cn1nc(C(F)(F)F)cc1C(=O)N[C@H]1C[C@H](CS(=O)(=O)c2cccc(C(F)(F)F)c2)C1 [Compound 350, 1-methyl-3-(trifluoromethyl)-N-((1R,3R)-3-((3-(trifluoromethyl)phenylsulfonyl)methyl)cyclobutyl)-1H-pyrazole-5-carboxamide]	> 10000 nM	1410 nM	> 10000 nM
CC1(NC(=O)CN[C@H]2C[C@H](CS(=O)(=O)c3cccc(C(F)(F)F)c3)C2)CCC1 [Compound 351, N-(1-methylcyclobutyl)-2-((1R,3R)-3-((3-(trifluoromethyl)phenylsulfonyl)methyl)cyclobutylamino)acetamide]	7430 nM	2770 nM	> 10000 nM
CC(C)(C)NC(=O)CN[C@H]1C[C@H](CS(=O)(=O)c2cccc(C(F)(F)F)c2)C1 [Compound 352, N-tert-butyl-2-((1R,3R)-3-((3-(trifluoromethyl)phenylsulfonyl)methyl)cyclobutylamino)acetamide]	230 nM	3760 nM	640 nM
O=C(CN[C@H]1C[C@H](CS(=O)(=O)c2cccc(C(F)(F)F)c2)C1)NC1CCCCC1 [Compound 353, N-cyclohexyl-2-((1R,3R)-3-((3-(trifluoromethyl)phenylsulfonyl)methyl)cyclobutylamino)acetamide]	1980 nM	3210 nM	5020 nM
O=C(NC[C@H]1C[C@H](S(=O)(=O)c2cccc(C(F)(F)F)c2)C1)c1cn2cc(C(F)(F)F)ccc2n1 [Compound 360, 6-(trifluoromethyl)-N-(((1R,3R)-3-(3-(trifluoromethyl)phenylsulfonyl)cyclobutyl)methyl)imidazo[l,2-a]pyridine-2-carboxamide]	> 10000 nM	190 nM	> 10000 nM

The next lines start with the values.

IC50 [1]	IC50 [2]	IC50 [3]	SMILES
7060 nM	140 nM	> 10000 nM	O=C(NC[C@H]1C[C@H](S(=O)(=O)c2cccc(C(F)(F)F)c2)C1)c1ccc(F)c(C(F)(F)F)c1 [Compound 354, 4-fluoro-3-(trifluoromethyl)-N-(((1R,3R)-3-(3-(trifluoromethyl)phenylsulfonyl)cyclobutyl)methyl)benzamide]
740 nM	190 nM	1430 nM	Cn1nc(C(F)(F)F)cc1C(=O)NC[C@H]1C[C@H](S(=O)(=O)c2cccc(C(F)(F)F)c2)C1 [Compound 355, 1-methyl-3-(trifluoromethyl)-N-(((1R,3R)-3-(3-(trifluoromethyl)phenylsulfonyl)cyclobutyl)methyl)-1H-pyrazole-5-carboxamide]
> 10000 nM	200 nM	> 10000 nM	O=C(NC[C@H]1C[C@H](S(=O)(=O)c2cccc(C(F)(F)F)c2)C1)c1ccc(F)c(Cl)c1 [Compound 357, 3-chloro-4-fluoro-N-(((1R,3R)-3-(3-(trifluorornethyl)phenylsulfonyl)cyclobutyl)methyl)benzamide]
> 10000 nM	190 nM	8370 nM	O=C(NC[C@H]1C[C@H](S(=O)(=O)c2cccc(C(F)(F)F)c2)C1)c1ccc(C(F)(F)F)cn1 [Compound 358, 5-(trifluoromethyl)-N-(((1R,3R)-3-(3-(trifluoromethyl)phenylsulfonyl)cyclobutyl)methyl)picolinamide]
200 nM	460 nM	1620 nM	O=C(NC[C@H]1C[C@H](S(=O)(=O)c2cccc(C(F)(F)F)c2)C1)c1ccnc(C(F)(F)F)c1 [Compound 361, 2-(trifluoromethyl)-N-(((1R,3R)-3-(3-(trifluoromethyl)phenylsulfonyl)cyclobutyl)methyl)isonicotinamide]
210 nM	1400 nM	520 nM	CS(=O)(=O)c1cc(C(F)(F)F)cnc1C(=O)NC[C@H]1C[C@H](S(=O)(=O)c2cccc(C(F)(F)F)c2)C1 [Compound 364, 3-(methylsulfonyl)-5-(trifluoromethyl)-N-(((1R,3R)-3-(3-(trifluoromethyl)phenylsulfonyl)cyclobutyl)methyl)picolinamide]
> 10000 nM	190 nM	> 10000 nM	O=C(NC[C@H]1C[C@H](S(=O)(=O)c2cccc(C(F)(F)F)c2)C1)c1ccc(Cl)c(OC(F)(F)F)c1 [Compound 366, 4-chloro-3-(trifluoromethoxy)-N-(((1R,3R)-3-(3-(trifluoromethyl)phenylsulfonyl)cyclobutyl)methyl)benzamide]
350 nM	850 nM	900 nM	O=C(NC[C@H]1C[C@H](S(=O)(=O)c2cccc(C(F)(F)F)c2)C1)c1ccnn1CC(F)(F)F [Compound 367, 1-(2,2,2-trifluoroethyl)-N-(((1R,3R)-3-(3-(trifluoromethyl)phenylsulfonyl)cyclobutyl)methyl)-1H-pyrazole-5-carboxamide]
400 nM	940 nM	950 nM	CS(=O)(=O)c1cc(Cl)ccc1C(=O)NC[C@H]1C[C@H](S(=O)(=O)c2cccc(C(F)(F)F)c2)C1 [Compound 368, 4-chloro-2-(methylsulfonyl)-N-(((1R,3R)3-(3-(trifluoromethyl)phenylsulfonyl)cyclobutyl)methyl)benzamide]
